Assay results reported in patent US20260234165A1, “MACROCYCLIC COMPOUNDS, PREPARATION METHOD THEREFOR, AND USE THEREOF” (GENFLEET THERAPEUTICS (SHANGHAI) INC., priority 2004, published 2026).
pIC50: −log10 of the molar value. Where a name gives a salt, the structure may show the parent alone. Read-outs that look alike come from different tables or passages of the source.

Tests used:
Format in all cases: cell-based, human
[1] = test system: p-ERK in NCI-H441 cells (KRAS G12V mutation); experiment: Cell p-ERK assay (HTRF) in NCI-H441 cells; details: NCI-H441 cells, 3 h compound incubation, HTRF p-ERK T202/Y204, read-out: H441 p-ERK IC50
Procedure, shortened: (§1)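 AsPC-1 (10000/well) or NCI-H441 (20000/well) cells were seeded overnight, then treated 3 h at 37° C. with 3.16-fold compound dilutions (0.1% DMSO final). Lysates were probed 4 h for phospho-ERK T202/Y204 by HTRF; inhibition versus DMSO and blank wells gave IC50 from four-parameter fits.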

[2] = test system: p-ERK in AsPC-1 cells (KRAS G12D mutation); experiment: Cell p-ERK assay (HTRF) in AsPC-1 cells; details: AsPC-1 cells, 3 h compound incubation, HTRF p-ERK T202/Y204, read-out: AsPC-1 p-ERK IC50
Procedure, shortened: as §1

[3] = test system: AsPC-1 cells (KRAS G12D mutation); experiment: 3D cell proliferation assay (CellTiter Glo-3D), AsPC-1; details: medium with 2% FBS, read-out: AsPC-1 AP IC50
Procedure, shortened: (§2)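 Luminescent CellTiter-Glo 3D readout after 5-day compound exposure (3.16-fold series, 0.1% DMSO, 2% FBS medium) at 37°C on 800 cells/well plated the day before; IC50 from four-parameter curve of inhibition relative to DMSO and blank wells.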

NCI-H441 cells = experiment: 3D cell proliferation assay (CellTiter Glo-3D), NCI-H441; details: medium with 2% FBS, read-out: H441 AP IC50
Procedure, shortened: as §2

[4] = Homo sapiens, ASPC1, 3D cell proliferation (CellTiter Glo-3D)
[5] = Homo sapiens, NCI-H441, 3D cell proliferation (CellTiter Glo-3D)
[6] = 3D cell proliferation (CellTiter Glo-3D)

pIC50 ([1]; Homo sapiens, NCI-H441, 3 h) | pIC50 ([2]; Homo sapiens, ASPC1, 3 h) | pIC50 [3, 4] | pIC50 (NCI-H441 cells; [5]) | pIC50 [1] | pIC50 [2] | pIC50 [3, 6] | pIC50 (NCI-H441 cells; [6]) | Structure (SMILES)
8.01 | 7.62 | 7.71 | 8.18 |  |  |  |  | CCn1c(-c2cc([C@H]3CCN4CCOC[C@@H]4C3)cnc2[C@H](C)OC)c2c3cc(ccc31)-c1csc(n1)C[C@H](NC(=O)[C@H]1[C@H](C)[C@@H]1C)C(=O)N1CCC[C@H](N1)C(=O)OCC1(CC1)C2 (single isomer, unassigned) [Compound Z79]
7.93 | 7.60 | 7.72 | 8.14 |  |  |  |  | CCn1c(-c2cc([C@@H]3CCN4CCOC[C@H]4C3)cnc2[C@H](C)OC)c2c3cc(ccc31)-c1csc(n1)C[C@H](NC(=O)[C@H]1[C@H](C)[C@@H]1C)C(=O)N1CCC[C@H](N1)C(=O)OCC1(CC1)C2 (single isomer, unassigned) [Compound Z80]
8.26 | 7.97 | 7.74 | 8.13 |  |  |  |  | CCn1c(-c2cc(OCC34CCCN3CCC4)cnc2[C@H](C)OC)c2c3cc(ccc31)-c1csc(n1)C[C@H](NC(=O)[C@H]1[C@H](C)[C@@H]1C)C(=O)N1CCC[C@H](N1)C(=O)OCC1(CC1)C2 (single isomer, unassigned) [Compound Z339]
 |  |  |  | 8.77 | 8.38 | 8.19 | 8.33 | CCn1c(-c2cc(C#C[C@@H]3CCCN3C)cnc2[C@H](C)OC)c2c3cc(ccc31)-c1csc(n1)C[C@H](NC(=O)[C@H]1[C@H](C)[C@@H]1C)C(=O)N1CCC[C@H](N1)C(=O)OCC(C)(C)C2 (single isomer, unassigned) [Compound Z598A]
8.81 | 8.47 | 8.35 | 8.80 |  |  |  |  | CCn1c(-c2cc(OCCN3CCP(C)(=O)CC3)cnc2[C@H](C)OC)c2c3cc(ccc31)-c1csc(n1)C[C@H](NC(=O)[C@H]1[C@H](C)[C@@H]1C)C(=O)N1CCC[C@H](N1)C(=O)OCC(C)(C)C2 (single isomer, unassigned) [Compound Z780]
9.29 | 9.02 | 8.89 | 8.92 |  |  |  |  | CCn1c(-c2cc(C#CCN3CCCOCC3)c[n+]([O-])c2[C@H](C)O)c2c3cc(ccc31)-c1csc(n1)C[C@H](NC(=O)[C@H]1[C@H](C)[C@@H]1C)C(=O)N1CCC[C@H](N1)C(=O)OCC(C)(C)C2 (single isomer, unassigned) [Compound Z1039]
 |  |  |  | 9.51 | 9.51 | 9.06 | 9.29 | CCn1c(-c2cc(N3CCN4CCOC[C@@H]4C3)cnc2[C@H](C)OC)c2c3cc(ccc31)-c1csc(n1)C[C@H](NC(=O)[C@H]1[C@H](C)[C@@H]1C)C(=O)N1CCC[C@H](N1)C(=O)OCC(C)(C)C2 [Compound Z72]
7.73 | 7.41 | 7.25 | 7.71 |  |  |  |  | CCn1c(-c2cc(C3(C(=O)N4CCN(C)CC4)CC3)cnc2[C@H](C)OC)c2c3cc(ccc31)-c1csc(n1)C[C@H](NC(=O)[C@H]1[C@H](C)[C@@H]1C)C(=O)N1CCC[C@H](N1)C(=O)OCC(C)(C)C2 [Compound Z75, (1r,2R,3S)—N-((6^3S,4S,Z)-1^1-ethyl-1^2-(2-((S)-1-methoxyethyl)-5-(1-(4-methylpiperazine-1-carbonyl)cyclopropyl)pyridin-3-yl)-10,10-dimethyl-5,7-dioxo-6^1,6^2,6^3,6^4,6^5,6^6-hexahydro-1^1H-8-oxa-2(4,2)-thiazola-1(5,3)-indola-6(1,3)-pyridazinacycloundecaphane-4-yl)-2,3-dimethylcyclopropane-1-carboxamide]
7.72 | 7.72 | 7.52 | 7.52 |  |  |  |  | CCn1c(-c2cc(N(C)CC3COCCN3C)cnc2[C@H](C)OC)c2c3cc(ccc31)-c1csc(n1)C[C@H](NC(=O)[C@H]1[C@H](C)[C@@H]1C)C(=O)N1CCC[C@H](N1)C(=O)OCC(C)(C)C2 (stereo partly drawn) [Compound Z76, (1r,2R,3S)—N-((6^3S,4S,Z)-1^1-ethyl-1^2-(2-((S)-1-methoxyethyl)-5-(methyl((4-methylmorpholin-3-yl)methyl)amino)pyridin-3-yl)-10,10-dimethyl-5,7-dioxo-6^1,6^2,6^3,6^4,6^5,6^6-hexahydro-11H-8-oxa-2(4,2)-thiazola-1(5,3)-indola-6(1,3)-pyridazinacycloundecaphane-4-yl)-2,3-dimethylcyclopropane-1-carboxamide]
8.77 | 8.70 | 8.47 | 8.69 |  |  |  |  | CCn1c(-c2cc(N3CCN(C4(c5cccc(C)n5)CC4)CC3)cnc2[C@H](C)OC)c2c3cc(ccc31)-c1csc(n1)C[C@H](NC(=O)[C@H]1[C@H](C)[C@@H]1C)C(=O)N1CCC[C@H](N1)C(=O)OCC(C)(C)C2 [Compound Z81, (1r,2R,3S)—N-((6^3S,4S,Z)-1^1-ethyl-2-(2-((S)-1-methoxyethyl)-5-(4-(1-(6-methylpyridin-2-yl)cyclopropyl)piperazin-1-yl)pyridin-3-yl)-10-10-dimethyl-5,7-dioxo-6^1,6^2,6^3,6^4,6^5,6^6-hexahydro-1^1H-8-oxa-2(4,2)-thiazola-1(5,3)-indola-6(1,3)-pyridazinacycloundecaphane-4-yl)-2,3-dimethylcyclopropane-1-carboxamide formate]
 |  |  |  | 9.12 | 9.37 | 9.11 | 9.32 | CCn1c(-c2cc(OCCN3CCOC4(CC4)C3)cnc2[C@H](C)OC)c2c3cc(ccc31)-c1csc(n1)C[C@H](NC(=O)[C@H]1[C@H](C)[C@@H]1C)C(=O)N1CCC[C@H](N1)C(=O)OCC(C)(C)C2 [Compound Z83, (1r,2R,3S)—N-((6^3R,4R,Z)-1^2-(5-(2-(4-oxa-7-azaspiro[2,5]octan-7-yl)ethoxy)-2-((S)-1-methoxyethyl)pyridin-3-yl)-1′-ethyl-10,10-dimethyl-5,7-dioxo-6^1,6^2,6^3,6^4,6^5,6^6-hexahydro-1^1H-8-oxa-2(4,2)-thiazola-1(5,3)-indola-6(1,3)-pyridazinacycloundecaphane-4-yl)-2,3-dimethylcyclopropane-1-carboxamide]
 |  |  |  | 8.06 | 7.80 | 7.28 | 7.64 | CCn1c(-c2cc(OCC3(N4CCCOCC4)CC3)cnc2[C@H](C)OC)c2c3cc(ccc31)-c1csc(n1)C[C@H](NC(=O)[C@H]1[C@H](C)[C@@H]1C)C(=O)N1CCC[C@H](N1)C(=O)OCC1(CC1)C2 [Compound Z329, (1r,2R,3S)—N-((3′S,4′S,Z)-2′-(5-((1-(1,4-oxazepan-4-yl)cyclopropyl)methoxy)-2-((S)-1-methoxyethyl)pyridin-3-yl)-1′-ethyl-5′,7′-dioxospiro[cyclopropane-1,10′-8-oxa-2(4,2)-thiazola-1(5,3)-indola-6(1,3)-pyridazinacycloundecaphan]-4′-yl)-2,3-dimethylcyclopropane-1-carboxamide]
7.96 | 7.73 | 7.53 | 7.73 |  |  |  |  | CCn1c(-c2cc(OCC3(N4CCC4)CC3)cnc2[C@H](C)OC)c2c3cc(ccc31)-c1csc(n1)C[C@H](NC(=O)[C@H]1[C@H](C)[C@@H]1C)C(=O)N1CCC[C@H](N1)C(=O)OCC1(CC1)C2 [Compound Z333]
 | 7.79 |  |  | 8.04 |  | 7.27 | 7.71 | CO[C@@H](C)c1ncc(OCCN2CCOC3(CC3)C2)cc1-c1c2c3cc(ccc3n1CC(F)(F)F)-c1csc(n1)C[C@H](NC(=O)[C@H]1[C@H](C)[C@@H]1C)C(=O)N1CCC[C@H](N1)C(=O)OCC1(CC1)C2 [Compound Z350, (1r,2R,3S)—N-((3′S,4′S,Z)-2′-(5-(2-(4-oxa-7-azaspiro[2.5]octan-7-yl)ethoxy)-2-((S)-1-methoxyethyl)pyridin-3-yl)-5′,7′-dioxo-1′-(2,2,2-trifluoroethyl)spiro[cyclopropane-1,10′-8-oxa-2(4,2)-thiazola-1(5,3)-indola-6(1,3)-pyridazinacycloundecaphan]-4-yl)-2,3-dimethylcyclopropane-1-carboxamide]
 |  |  |  | 8.58 | 8.58 | 8.62 | 8.65 | CCn1c(-c2cc(C#CCN3CCC3)cnc2[C@H](C)OC)c2c3cc(ccc31)-c1csc(n1)C[C@H](NC(=O)[C@H]1[C@H](C)[C@@H]1C)C(=O)N1CCC[C@H](N1)C(=O)OCC(C)(C)C2 [Compound Z361, (1r,2R,3S)—N-((6^3S,4S,Z)-1-(5-(3-(azetidin-1-yl)prop-1-yn-1-yl)-2-((S)-1-methoxyethyl)pyridin-3-yl)-1^1-ethyl-10,10-dimethyl-5,7-dioxo-6^1,6^2,6^3,6^4,6^5,6^6-hexahydro-1^1H-8-oxa-2(4,2)-thiazola-1(5,3)-indola-6(1,3)-pyridazinacycloundecaphane-4-yl)-2,3-dimethylcyclopropane-1-carboxamide formate]
